{"source": "patent US11771704B1", "about": "“Methods of using rho kinase inhibitors to treat alzheimer's disease” (priority 2020, dated 2023)", "origin": "cited, not measured here", "key": {"[1]": {"conditions": "in vivo, 1-hydroxy metabolite; cited from earlier work"}, "[2]": {"tested_on": "triple transgenic mouse model (APP Swedish, MAPT P301L, and PSEN1 M146V)", "conditions": "10 mg/kg/day intraperitoneally (57 mg HED); cited from earlier work"}, "APP/PS1 transgenic mice": {"tested_on": "APP/PS1 transgenic mice", "conditions": "5 and 10 mg/kg/day intraperitoneally (70, 140 mg HED); cited from earlier work"}, "streptozotocin rats": {"tested_on": "streptozotocin rats", "conditions": "5 and 10 mg/kg/day intraperitoneally (226 mg HED); cited from earlier work"}, "triple transgenic mice": {"tested_on": "triple transgenic mice", "conditions": "10 or 12 months of age, in water at 30 mg/kg and 100 mg/kg; cited from earlier work"}, "[3]": {"molecular_target": "p38 mitogen-activated protein kinase (Homo sapiens, UniProt Q16539)", "sequence (Q16539 whole entry)": "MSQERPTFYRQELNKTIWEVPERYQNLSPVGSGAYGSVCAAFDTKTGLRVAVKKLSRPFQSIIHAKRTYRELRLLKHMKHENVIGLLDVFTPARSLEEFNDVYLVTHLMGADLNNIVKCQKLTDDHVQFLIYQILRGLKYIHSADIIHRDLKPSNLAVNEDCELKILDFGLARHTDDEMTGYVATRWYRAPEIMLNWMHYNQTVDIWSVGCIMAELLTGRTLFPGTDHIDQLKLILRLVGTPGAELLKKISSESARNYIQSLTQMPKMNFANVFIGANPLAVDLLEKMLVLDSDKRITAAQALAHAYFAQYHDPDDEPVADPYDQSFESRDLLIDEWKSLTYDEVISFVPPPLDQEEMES", "conditions": "cited from earlier work"}, "animal model": {"tested_on": "animal model", "conditions": "in vivo; cited from earlier work"}}}
{"compound": "O=S(=O)(c1cccc2c(O)nccc12)N1CCCNCC1", "note": "[M3, hydroxyfasudil]", "values": [{"measurement": "half-life", "setting": "[1]", "value": "about 8 hours"}]}
{"compound": "Cl.O=S(=O)(c1cccc2cnccc12)N1CCCNCC1", "note": "[fasudil, Hexahydro-1-(5-Isoquinolinesulfonyl)-1H-1,4-Diazepine Monohydrochloride Hemihydrate]", "values": [{"measurement": "β-amyloid plaques in vivo", "setting": "[2]", "value": "reduce"}, {"measurement": "latency distance and quadrant time in the Morris water maze", "setting": "APP/PS1 transgenic mice", "value": "improved"}, {"measurement": "latency distance and quadrant time in the Morris water maze", "setting": "streptozotocin rats", "value": "improved"}, {"measurement": "spatial memory", "setting": "triple transgenic mice", "value": "did not observe improvements"}]}
{"compound": "O=c1ncn2nc(Sc3ccc(F)cc3F)ccc2c1-c1c(Cl)cccc1Cl", "note": "[Neflamapimod]", "values": [{"measurement": "primary endpoint of improving episodic memory", "setting": "[3]; Phase 2", "value": "failed"}, {"measurement": "tau in the cerebrospinal fluid", "setting": "[3]; Phase 2", "value": "reducing"}, {"measurement": "Aβ deposition", "setting": "[3]; humans", "value": "no effect"}, {"measurement": "efficacy in an animal model", "setting": "animal model", "value": "showed efficacy"}]}
